These results are taken from ChEMBL document CHEMBL4819104, “Discovery of 2-amino-3-amido-5-aryl-pyridines as highly potent, orally bioavailable, and efficacious PERK kinase inhibitors” (Bioorg Med Chem Lett, 2021).

Values after ≈ are worked out from the molar mass of the structure shown. Some results are limits rather than exact numbers.

The target in series [1] is T1, Eukaryotic translation initiation factor 2-alpha kinase 3 (Homo sapiens, UniProt Q9NZJ5).
T1 sequence (Q9NZJ5 whole entry): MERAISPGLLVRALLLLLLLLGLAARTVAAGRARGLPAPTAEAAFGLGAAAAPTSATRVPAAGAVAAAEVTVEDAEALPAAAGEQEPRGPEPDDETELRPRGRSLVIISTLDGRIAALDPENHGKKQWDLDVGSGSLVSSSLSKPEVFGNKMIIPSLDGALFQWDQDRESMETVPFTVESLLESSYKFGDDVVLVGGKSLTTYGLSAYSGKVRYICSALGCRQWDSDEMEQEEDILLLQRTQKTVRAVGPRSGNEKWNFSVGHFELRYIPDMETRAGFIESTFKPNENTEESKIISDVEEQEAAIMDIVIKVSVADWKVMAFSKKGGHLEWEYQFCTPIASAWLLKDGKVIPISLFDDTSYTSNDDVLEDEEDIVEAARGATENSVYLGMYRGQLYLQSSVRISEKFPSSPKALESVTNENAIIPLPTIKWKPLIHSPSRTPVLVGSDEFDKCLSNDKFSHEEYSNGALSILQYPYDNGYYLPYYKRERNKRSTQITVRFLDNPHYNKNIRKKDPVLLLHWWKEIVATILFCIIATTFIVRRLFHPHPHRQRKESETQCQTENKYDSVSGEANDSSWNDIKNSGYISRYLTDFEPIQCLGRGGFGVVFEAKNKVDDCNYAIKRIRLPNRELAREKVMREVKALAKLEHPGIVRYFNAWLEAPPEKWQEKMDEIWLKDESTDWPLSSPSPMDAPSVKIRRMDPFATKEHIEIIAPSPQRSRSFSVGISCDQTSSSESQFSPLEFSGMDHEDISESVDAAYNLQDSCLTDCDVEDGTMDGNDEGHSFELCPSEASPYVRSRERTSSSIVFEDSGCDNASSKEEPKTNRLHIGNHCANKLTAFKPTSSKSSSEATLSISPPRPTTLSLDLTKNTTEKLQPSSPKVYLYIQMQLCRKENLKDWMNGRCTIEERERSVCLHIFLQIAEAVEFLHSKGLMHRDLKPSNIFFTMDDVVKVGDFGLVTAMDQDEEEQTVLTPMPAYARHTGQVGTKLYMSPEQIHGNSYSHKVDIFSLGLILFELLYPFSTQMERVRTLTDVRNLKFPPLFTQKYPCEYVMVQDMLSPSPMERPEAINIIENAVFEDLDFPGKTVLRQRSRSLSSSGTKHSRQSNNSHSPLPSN
Description: Inhibition of human His-tagged PERK expressed in Escherichia coli assessed as eIF2alpha phosphorylation by TR-FRET assay.

Series [2] is described as follows: Aqueous solubility of the compound. In kind it is physicochemical. The settings on record: buffer.
Series [3] can be described thus: Apparent permeability of the compound across apical to basolateral side in human Caco-2 cells. In kind it is ADME, cell-based. The settings on record: read-out: permeability.
Series [4] is described as follows: Efflux ratio of apparent permeability in human Caco-2 cells. In kind it is ADME, cell-based.
Series [5] is described as follows: Plasma protein binding in human. The series is classed as ADME, cell-free. The conditions noted are these: read-out: PPB (converted).
A short description of series [6]: Plasma protein binding in rat. The settings on record: read-out: PPB (converted). In kind it is ADME, cell-free.
The nature of series [7]: Plasma protein binding in mouse. The series is classed as ADME, cell-free. The settings on record: read-out: PPB (converted).
The nature of series [8]: Plasma protein binding in dog. The conditions noted are these: read-out: PPB (converted). The series is classed as ADME, cell-free, Canis lupus familiaris.
Series [9] in a line: Half life in human hepatocytes. The series is classed as ADME, cell-based, Hepatocyte.
Series [10] can be described thus: Half life in rat hepatocytes. The series is classed as ADME, cell-based, Hepatocyte.
Series [11] can be described thus: Half life in mouse hepatocytes. The series is classed as ADME, cell-based, Hepatocyte.
The nature of series [12]: Half life in dog hepatocytes. The series is classed as ADME, cell-based, Canis lupus familiaris, Hepatocyte.

As to `Cc1cc(NC(=O)Oc2ccccc2)ccc1-c1cnc(N)c(C(=O)NC(C)C)c1`, the IC50 in series [1] is above 1000 nM.
As to `Cc1cc(NC(=O)[C@H](O)c2cc(F)cc(F)c2)ccc1-c1cnc(N)c(C(=O)NC(C)(C)C)c1`, the IC50 in series [1] amounted to 33 nM.
Same read-out and setting: next, `CC(C)NC(=O)c1cc(-c2ccc(NC(=O)[C@H](O)c3cc(F)cc(F)c3)cc2)cnc1N`: 23 nM; `COc1cc(NC(=O)[C@H](O)c2cc(F)cc(F)c2)ccc1-c1cnc(N)c(C(=O)NC(C)C)c1`: 85 nM.
Turning to `Cc1cc(NC(=O)[C@H](O)c2cc(F)cc(F)c2)ccc1-c1cnc(N)c(C(=O)NC2CC2)c1`, in series [1], the IC50 was 3 nM. The molecule further displayed a solubility in series [2] of 37 µM (≈ 16.7 µg/mL). The Papp A→B in [3] was 14 ×10⁻⁶ cm/s. In addition, the efflux ratio in series [4] is 4.6. Also, the fraction unbound was 0.024 in series [5], 0.028 in series [6], 0.028 in [7] and 0.029 in series [8]. The half-life in series [9] was 7.92 h; in series [10] it was 2.18 h; in series [11], 0.8 h; in series [12], above 16.7 h.
Regarding `Cc1cc(NC(=O)[C@H](O)c2cc(F)cc(F)c2)ccc1-c1cnc(N)c(C(=O)NC(C)C)n1`, in [1], the IC50 was 5 nM.
`Cc1cc(NC(=O)[C@H](O)c2cc(F)cc(F)c2)ccc1-c1cc(C(=O)NC(C)C)c(N)nn1`: the IC50 in series [1] is above 1000 nM.
Still for that read-out and setting: next, `CCc1cccc([C@@H](O)C(=O)Nc2ccc(-c3cnc(N)c(C(=O)NC(C)C)c3)c(C)c2)c1`: 6 nM; `Cc1cc(NC(=O)[C@H](O)c2cc(F)cc(F)c2)ccc1-c1cnc(N)c(C(=O)N(C)C)c1`: 599 nM.
As for `Cc1cc(NC(=O)Nc2ccccc2)ccc1-c1cnc(N)c(C(=O)NC(C)C)c1`, in [1], the IC50 stood at 1350 nM.
The same measure, in the same setting: next, `Cc1cc(NC(=O)[C@@H](O)c2cc(F)cc(F)c2)ccc1-c1cnc(N)c(C(=O)NC(C)C)c1`: 26 nM.
In the case of `CCNC(=O)c1cc(-c2ccc(NC(=O)[C@H](O)c3cc(F)cc(F)c3)cc2C)cnc1N`, the IC50 in [1] was 4 nM. The molecule further showed a solubility in series [2] of 48 µM (≈ 21.1 µg/mL). Besides, the Papp A→B in series [3] amounted to 14 ×10⁻⁶ cm/s. The efflux ratio in [4] is 3.3. The fraction unbound in series [5] is 0.019; in [6], 0.033; in [7] it was 0.028; in [8] it was 0.029. Further, the half-life turned out to be 1.97 h in series [9], 0.567 h in [10], 1.15 h in series [11] and 14.6 h in series [12].
With `Cc1cc(NC(=O)Cc2ccccc2)ccc1-c1cnc(N)c(C(=O)NC(C)C)c1`, the IC50 in [1] was found to be 73 nM.
Turning to `Cc1cc(NC(=O)[C@H](O)c2ccccc2)ccc1-c1cnc(N)c(C(=O)NC(C)C)c1`, in [1], the IC50 was 9 nM.
On the same count and under the same terms, with `Cc1cc(NC(=O)C(O)c2cc(F)cc(F)c2)ccc1-c1cnc(N)c(C(=O)O)c1` (centres undefined) the figure was 241 nM; with `Cc1cc(NC(=O)[C@@](C)(O)c2ccccc2)ccc1-c1cnc(N)c(C(=O)NC(C)C)c1`, 159 nM.
On the same count and under the same terms, with `CNC(=O)c1cc(-c2ccc(NC(=O)[C@H](O)c3cc(F)cc(F)c3)cc2C)cnc1N` the figure was 14 nM.
In the case of `CNc1ncc(-c2ccc(NC(=O)[C@H](O)c3cc(F)cc(F)c3)cc2C)cc1C(=O)NC(C)C`, the IC50 in [1] was 129 nM.
Take `Cc1cc(NC(=O)[C@H](O)c2cc(F)cc(F)c2)ccc1-c1cnc(C)c(C(=O)NC(C)C)c1`: the IC50 in series [1] was 68 nM.
Take `Cc1cc(NC(=O)[C@H](O)c2cccc(Cl)c2)ccc1-c1cnc(N)c(C(=O)NC(C)C)c1`: in series [1], the IC50 was found to be 3 nM. For the same molecule, in series [2], the solubility is 13 µM (≈ 5.89 µg/mL). Moreover, the Papp A→B in [3] turned out to be 22 ×10⁻⁶ cm/s. For the same molecule, the efflux ratio in [4] was 2.8. Further, the fraction unbound in series [5] was 0.004; in series [6] it was 0.013; in [7] it was 0.006; in [8], 0.006. Further, the half-life in series [9] amounted to 4.32 h; in series [10], 0.2 h; in series [11] it was 0.783 h; in [12] it was 3.73 h.
Turning to `CC(C)NC(=O)c1cc(-c2ccc(NC(=O)[C@H](O)c3cc(F)cc(F)c3)cc2Cl)cnc1N`, the IC50 in [1] was 9 nM. The solubility in [2] turned out to be 13 µM (≈ 6.17 µg/mL). In addition, the Papp A→B in series [3] worked out at 24 ×10⁻⁶ cm/s. The efflux ratio in [4] stood at 2.5. Moreover, the fraction unbound in [5] was 0.003; in series [6], 0.007; in [7], 0.005; in [8], 0.005. Besides, the half-life in series [9] came out at 9.48 h; in series [10], 0.2 h; in [11] it was 0.4 h; in series [12], 7.18 h.
Consider `Cc1cc(NC(=O)[C@H](O)c2cc(F)cc(F)c2)ccc1-c1ccc(N)nc1`, for which the IC50 in [1] is 75 nM.
As for `CC(C)NC(=O)c1cc(-c2ccc(NC(=O)[C@H](O)c3cc(F)cc(F)c3)cc2F)cnc1N`, the IC50 in [1] was found to be 17 nM.
Still for that read-out and setting: with `Cc1cc(NC(=O)[C@H](N)c2ccccc2)ccc1-c1cnc(N)c(C(=O)NC(C)C)c1` the figure was 1460 nM.
On to `CNC(=O)c1nc(-c2ccc(NC(=O)[C@H](O)c3cc(F)cc(F)c3)cc2C)cnc1N`, for which the half-maximal inhibitory concentration (IC50) in series [1] is 8 nM.
`Cc1cc(NC(=O)[C@](C)(O)c2ccccc2)ccc1-c1cnc(N)c(C(=O)NC(C)C)c1`: the IC50 in [1] came out at 130 nM.
As for `CO[C@@H](C(=O)Nc1ccc(-c2cnc(N)c(C(=O)NC(C)C)c2)c(C)c1)c1ccccc1`, in [1], the IC50 is above 1000 nM.
Still for that read-out and setting: next, `Cc1cc(NC(=O)[C@H](O)c2cc(F)cc(F)c2)ccc1-c1cncc(C(=O)NC(C)C)c1`: 27 nM; `Cc1cc(NC(=O)[C@H](O)c2cc(F)cc(F)c2)ccc1-c1cnc(N)c(C(=O)OC(C)C)c1`: 19 nM.
Same read-out and setting: next, `Cc1cccc([C@@H](O)C(=O)Nc2ccc(-c3cnc(N)c(C(=O)NC(C)C)c3)c(C)c2)c1`: 3 nM.
